PubChem BioAssay AID256 (DTP/NCI, 2004)
“And” between values parts separate entries of the source, which are not always exact repeats. Equal values may be shown once. Inconclusive results and toxic doses are left out.

System: CD2F1 mice, L1210 leukemia ip, survival T/C
Assay: NCI In Vivo Anticancer Drug Screen. Data for tumor model L1210 Leukemia (intraperitoneal) in CD2F1 (CDF1) mice
Conditions: higher = longer survival
Procedure, shortened: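 Each value reflects a quotient of treated over vehicle control outcomes in mice with a transplanted tumor.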

[1] = endpoint: mean survival time, dose: 100.0 mg/kg/injection, schedule: Q01DX009 (ip), vehicle: saline with Tween-80
[2] = endpoint: mean survival time, dose: 200.0 mg/kg/injection, schedule: Q01DX009 (ip), vehicle: saline with Tween-80
[3] = endpoint: mean survival time, dose: 100.0 mg/kg/injection, schedule: Q01DX001 (ip), vehicle: saline with Tween-80
[4] = endpoint: mean survival time, dose: 100.0 mg/kg/injection, schedule: Q04DX003 (ip), vehicle: saline with Tween-80
[5] = endpoint: mean survival time, dose: 200.0 mg/kg/injection, schedule: Q04DX003 (ip), vehicle: saline with Tween-80
[6] = endpoint: mean survival time, dose: 400.0 mg/kg/injection, schedule: Q04DX003 (ip), vehicle: saline with Tween-80
[7] = endpoint: mean survival time, dose: 100.0 mg/kg/injection, schedule: Q04DX003 (ip), vehicle: saline
[8] = endpoint: mean survival time, dose: 200.0 mg/kg/injection, schedule: Q04DX003 (ip), vehicle: saline
[9] = endpoint: mean survival time, dose: 50.0 mg/kg/injection, schedule: Q01DX009 (ip), vehicle: Klucel (hydroxypropylcellulose) (HPC)
[10] = endpoint: mean survival time, dose: 100.0 mg/kg/injection, schedule: Q01DX009 (ip), vehicle: Klucel (hydroxypropylcellulose) (HPC)
[11] = endpoint: mean survival time, dose: 200.0 mg/kg/injection, schedule: Q01DX009 (ip), vehicle: Klucel (hydroxypropylcellulose) (HPC)

O=C(O)CC1CCC(CC(=O)O)CC1 (configuration not stated)
T/C [1]: 101 % of control | T/C [2]: 104 % of control | T/C (endpoint: mean survival time, dose: 400.0 mg/kg/injection, schedule: Q01DX009 (ip), vehicle: saline with Tween-80): 101 % of control

FCCc1cccc(C(F)(F)F)c1
T/C [3]: 103 % of control | T/C (endpoint: mean survival time, dose: 100.0 mg/kg/injection, schedule: Q04DX003 (ip), vehicle: saline sonified): 94 % of control | T/C (endpoint: mean survival time, dose: 200.0 mg/kg/injection, schedule: Q01DX001 (ip), vehicle: saline with Tween-80): 101 % of control | T/C (endpoint: mean survival time, dose: 200.0 mg/kg/injection, schedule: Q04DX003 (ip), vehicle: saline sonified): 98 % of control | T/C (endpoint: mean survival time, dose: 400.0 mg/kg/injection, schedule: Q01DX001 (ip), vehicle: saline with Tween-80): 101 % of control | T/C (endpoint: mean survival time, dose: 400.0 mg/kg/injection, schedule: Q04DX003 (ip), vehicle: saline sonified): 98 % of control

CC1(C[N+](C)(C)C)COC(C)(C)O1 (configuration not stated)
T/C (endpoint: mean survival time, dose: 12.5 mg/kg/injection, schedule: Q04DX002 (ip), vehicle: saline): 95 % of control | T/C (endpoint: mean survival time, dose: 25.0 mg/kg/injection, schedule: Q01DX001 (ip), vehicle: saline): 98 % of control | T/C (endpoint: mean survival time, dose: 25.0 mg/kg/injection, schedule: Q04DX002 (ip), vehicle: saline): 95 % of control | T/C (endpoint: mean survival time, dose: 50.0 mg/kg/injection, schedule: Q01DX001 (ip), vehicle: saline): 96 % of control | T/C (endpoint: mean survival time, dose: 50.0 mg/kg/injection, schedule: Q04DX002 (ip), vehicle: saline): 106 % of control | T/C [3]: 94 % of control | T/C (endpoint: mean survival time, dose: 100.0 mg/kg/injection, schedule: Q01DX001 (ip), vehicle: saline): 103 % of control | T/C (endpoint: mean survival time, dose: 100.0 mg/kg/injection, schedule: Q04DX002 (ip), vehicle: saline): 95 % of control

CCCCCCCCC(=O)O
T/C [4]: 100 % of control | T/C [5]: 100 % of control | T/C [6]: 102 % of control

O=C(NS(=O)(=O)c1ccc(Cl)cc1)OCCCl
T/C [1]: 96 % of control | T/C [4]: 97 % of control | T/C [2]: 96 % of control | T/C [5]: 97 % of control | T/C [6]: 102 % of control

N#CCCCCCN=[N+]=[N-]
T/C (endpoint: mean survival time, dose: 75.0 mg/kg/injection, schedule: Q01DX001 (ip), vehicle: saline): 98 % of control | T/C (endpoint: mean survival time, dose: 150.0 mg/kg/injection, schedule: Q01DX001 (ip), vehicle: saline): 101 % of control

O=C(/C=C/c1ccccc1)N1CCCCC1
T/C [4]: 98 % of control | T/C [5]: 89 % of control | T/C [6]: 94 % of control

O=c1oc2ccccc2c(O)c1-c1cccc2ccccc12
T/C (endpoint: mean survival time, dose: 12.5 mg/kg/injection, schedule: Q01DX009 (ip), vehicle: saline with Tween-80): 91 % of control | T/C (endpoint: mean survival time, dose: 25.0 mg/kg/injection, schedule: Q01DX009 (ip), vehicle: saline with Tween-80): 103 % of control | T/C (endpoint: mean survival time, dose: 50.0 mg/kg/injection, schedule: Q01DX009 (ip), vehicle: saline with Tween-80): 100 % of control

C=C(C)C12OC3(c4ccccc4)OC1C1C4OC4(CO)C(O)C4(O)C(=O)C(C)=CC4C1(O3)C(C)C2OC(=O)c1ccccc1 (configuration not stated)
T/C (endpoint: mean survival time, dose: 0.1 mg/kg/injection, schedule: Q01DX009 (ip), vehicle: saline): 96 % of control | T/C (endpoint: mean survival time, dose: 0.2 mg/kg/injection, schedule: Q01DX009 (ip), vehicle: saline): 98 % of control | T/C (endpoint: mean survival time, dose: 0.4 mg/kg/injection, schedule: Q01DX009 (ip), vehicle: saline): 98 % of control | T/C (endpoint: mean survival time, dose: 0.8 mg/kg/injection, schedule: Q01DX009 (ip), vehicle: saline): 100 % of control

O=C(Nc1ccc2c3c(ccc(C(=O)Nc4ccccc4)c13)CC2)c1ccccc1
T/C [4]: 100 % of control | T/C [5]: 100 % of control | T/C [6]: 92 % of control

Cc1c(NS(=O)(=O)c2ccccc2)c(C)c(NS(=O)(=O)c2ccccc2)c(C)c1NS(=O)(=O)c1ccccc1
T/C (endpoint: mean survival time, dose: 50.0 mg/kg/injection, schedule: Q04DX003 (ip), vehicle: saline with Tween-80): 92 % of control | T/C [4]: 88 % of control and 93 % of control | T/C [5]: 93 % of control and 94 % of control | T/C [6]: 96 % of control

CC(C)C1=CCC2C(=C1)CCC1C(C)(C(N)=O)CCCC21C (configuration not stated)
T/C [4]: 95 % of control | T/C [5]: 88 % of control | T/C [6]: 90 % of control

O=S(=O)(OCCOC(c1ccccc1)(c1ccccc1)c1ccccc1)c1ccc(Br)cc1
T/C [4]: 94 % of control | T/C [5]: 90 % of control | T/C [6]: 98 % of control

CC1(C)CC(Cl)(C(O)c2ccc([N+](=O)[O-])cc2)C(=O)c2ccccc21 (configuration not stated)
T/C (endpoint: mean survival time, dose: 100.0 mg/kg/injection, schedule: Q04DX003 (ip), vehicle: acetone): 95 % of control | T/C (endpoint: mean survival time, dose: 200.0 mg/kg/injection, schedule: Q04DX003 (ip), vehicle: acetone): 98 % of control | T/C (endpoint: mean survival time, dose: 400.0 mg/kg/injection, schedule: Q04DX003 (ip), vehicle: acetone): 88 % of control

COc1ccccc1OC(=O)Nc1ccccc1F
T/C [4]: 101 % of control | T/C [5]: 97 % of control | T/C [6]: 101 % of control

NC(Cc1ccc(N(CCCl)Cc2ccccc2)cc1)C(=O)O (configuration not stated)
T/C (endpoint: mean survival time, dose: 3.12 mg/kg/injection, schedule: Q01DX009 (ip), vehicle: distilled water + Tween-80): 103 % of control and 107 % of control | T/C (endpoint: mean survival time, dose: 3.13 mg/kg/injection, schedule: Q01DX009 (ip), vehicle: distilled water + Tween-80): 106 % of control

COc1nccnc1NS(=O)(=O)c1ccc(N)cc1
T/C [7]: 98 % of control | T/C [8]: 100 % of control | T/C (endpoint: mean survival time, dose: 400.0 mg/kg/injection, schedule: Q04DX003 (ip), vehicle: saline): 104 % of control

CCCNC(=O)Oc1ccc(Br)cc1Br
T/C [9]: 108 % of control | T/C [10]: 97 % of control | T/C [11]: 94 % of control

Nc1ncnc2nc(C3COCCO3)[nH]c12 (configuration not stated)
T/C (endpoint: mean survival time, dose: 12.5 mg/kg/injection, schedule: Q01DX005 (ip), vehicle: distilled water + Tween-80): 90 % of control | T/C (endpoint: mean survival time, dose: 25.0 mg/kg/injection, schedule: Q01DX005 (ip), vehicle: distilled water + Tween-80): 94 % of control | T/C (endpoint: mean survival time, dose: 50.0 mg/kg/injection, schedule: Q01DX005 (ip), vehicle: distilled water + Tween-80): 94 % of control | T/C (endpoint: mean survival time, dose: 100.0 mg/kg/injection, schedule: Q01DX005 (ip), vehicle: distilled water + Tween-80): 96 % of control | T/C (endpoint: mean survival time, dose: 200.0 mg/kg/injection, schedule: Q01DX005 (ip), vehicle: distilled water + Tween-80): 104 % of control

C=Cc1cnc([N+](=O)[O-])n1C
T/C (endpoint: mean survival time, dose: 12.5 mg/kg/injection, schedule: Q01DX009 (ip), vehicle: Klucel (hydroxypropylcellulose) (HPC)): 103 % of control | T/C (endpoint: mean survival time, dose: 25.0 mg/kg/injection, schedule: Q01DX009 (ip), vehicle: Klucel (hydroxypropylcellulose) (HPC)): 101 % of control | T/C [9]: 101 % of control | T/C [10]: 103 % of control | T/C [11]: 101 % of control

Cc1c(Cc2ccccc2)[n+](=O)c2ccccc2n1[O-]
T/C [4]: 97 % of control | T/C [5]: 101 % of control | T/C [6]: 98 % of control

OCCNc1ccc(I)cc1
T/C [4]: 105 % of control | T/C [5]: 112 % of control | T/C [6]: 103 % of control

CCCCCCCCCCSS(=O)(=O)O
T/C (endpoint: mean survival time, dose: 25.0 mg/kg/injection, schedule: Q01DX001 (ip), vehicle: other): 105 % of control | T/C (endpoint: mean survival time, dose: 50.0 mg/kg/injection, schedule: Q01DX001 (ip), vehicle: other): 96 % of control | T/C (endpoint: mean survival time, dose: 100.0 mg/kg/injection, schedule: Q01DX001 (ip), vehicle: other): 96 % of control

[CH3][Sb]([CH3])([CH3])([Cl])[Cl]
T/C (endpoint: mean survival time, dose: 50.0 mg/kg/injection, schedule: Q04DX003 (ip), vehicle: saline): 105 % of control | T/C [7]: 101 % of control | T/C [8]: 101 % of control

CCOc1c(C#N)c2c(N)ncnc2n1C1OC(CO)C(O)C1O (configuration not stated)
T/C (endpoint: mean survival time, dose: 12.5 mg/kg/injection, schedule: Q01DX009 (ip), vehicle: distilled water + Tween-80): 103 % of control | T/C (endpoint: mean survival time, dose: 25.0 mg/kg/injection, schedule: Q01DX009 (ip), vehicle: distilled water + Tween-80): 112 % of control | T/C (endpoint: mean survival time, dose: 50.0 mg/kg/injection, schedule: Q01DX009 (ip), vehicle: distilled water + Tween-80): 112 % of control | T/C (endpoint: mean survival time, dose: 100.0 mg/kg/injection, schedule: Q01DX009 (ip), vehicle: distilled water + Tween-80): 117 % of control

COC(=O)c1ccc(N=NN(C)COC(C)=O)cc1
T/C (endpoint: median survival time, dose: 15.0 mg/kg/injection, schedule: Q01DX005 (ip), vehicle: Klucel (hydroxypropylcellulose) (HPC)): 109 % of control | T/C (endpoint: median survival time, dose: 30.0 mg/kg/injection, schedule: Q01DX005 (ip), vehicle: Klucel (hydroxypropylcellulose) (HPC)): 113 % of control | T/C (endpoint: median survival time, dose: 60.0 mg/kg/injection, schedule: Q01DX005 (ip), vehicle: Klucel (hydroxypropylcellulose) (HPC)): 114 % of control | T/C (endpoint: median survival time, dose: 240.0 mg/kg/injection, schedule: Q01DX005 (ip), vehicle: Klucel (hydroxypropylcellulose) (HPC)): 182 % of control

O=C(O)CS(=O)(=O)c1ccc(Cl)cc1
T/C (endpoint: mean survival time, dose: 100.0 mg/kg/injection, schedule: Q01DX001 (ip), vehicle: Klucel (hydroxypropylcellulose) (HPC)): 111 % of control | T/C (endpoint: mean survival time, dose: 200.0 mg/kg/injection, schedule: Q01DX001 (ip), vehicle: Klucel (hydroxypropylcellulose) (HPC)): 103 % of control | T/C (endpoint: mean survival time, dose: 400.0 mg/kg/injection, schedule: Q01DX001 (ip), vehicle: Klucel (hydroxypropylcellulose) (HPC)): 100 % of control
